Measured values as given in ChEMBL document CHEMBL4052640 (Eur J Med Chem, 2017).

How the values were obtained:
[1] = test system: Influenza A virus; assay type: functional, cell-based; settings: A/Ned/378/05(H1N1), MDCK
[2] = test system: Coxsackievirus B4; assay type: functional, cell-based; settings: Enterovirus B, HeLa
[3] = cells; settings: Influenza A virus, MDCK
[4] = test system: Punta Toro virus; assay type: functional; settings: Vero
[5] = cells; settings: MDCK
[6] = test system: Coxsackievirus B4; assay type: functional; settings: Enterovirus B, Vero
[7] = test system: Influenza A virus; assay type: functional, cell-based; settings: A/Ned/378/05(H1N1), MDCK; remark: listed apart in the source
[8] = cells; settings: Influenza A virus, MDCK; remark: listed apart in the source
[9] = test system: Respiratory syncytial virus; assay type: functional, cell-based; settings: human respiratory syncytial virus, HeLa
[10] = test system: Human respirovirus 3; test: microbe, parasite or virus in culture; settings: Human respirovirus 3, Vero
[11] = test system: Sindbis virus; assay type: functional; settings: Vero
[12] = test system: Vesicular stomatitis virus; test: microbe, parasite or virus in culture; settings: HeLa
[13] = test system: Influenza B virus; test: microbe, parasite or virus in culture; settings: B/Ned/537/05, MDCK
[14] = test system: MDCK; test: Cytotoxicity against dog MDCK cells assessed as reduction in cell viability measured after 5 to 6 days by MTS assay; assay type: cell-based, Canis lupus familiaris
[15] = test system: Yellow fever virus; test: microbe, parasite or virus in culture; settings: Vero
[16] = test system: Mammalian orthoreovirus 1; assay type: functional; settings: Mammalian orthoreovirus 1, Vero
[17] = test system: Respiratory syncytial virus; test: microbe, parasite or virus in culture; settings: human respiratory syncytial virus, HeLa
[18] = Cytotoxicity against human HeLa cells assessed as alterations in cell morphology by microscopic analysis; assay type: cell-based

Row | Compound | EC50 [1] [µM] | EC50 [2] [µM] | EC50 [3] [µM] | EC50 [4] [µM] | EC50 [5] [µM] | EC50 [6] [µM] | EC50 [7] [µM] | EC50 [8] [µM] | EC50 [9] [µM] | EC50 [10] [µM] | EC50 [11] [µM] | EC50 [12] [µM] | EC50 [13] [µM] | CC50 [14] [µM] | EC50 [15] [µM] | EC50 [16] [µM] | EC50 [17] [µM] | MCC [18] [µM]
1 | CC1(C)N=C(N)N=C(Nc2ccc(Cl)cc2)N1 | > 100 | > 100 | > 83 | > 100 | > 100 | > 100 | > 100 | > 83 | > 100 | > 100 | > 100 | > 100 | > 100 | > 100 | > 100 | > 100 | – | –
2 | NC1=NC2(CCCC2)N(c2ccc(Cl)cc2)C(N)=N1 | > 100 | > 100 | > 83 | > 100 | 6.1 | > 100 | > 100 | > 83 | 8 | > 100 | > 100 | > 100 | 18 | > 100 | > 100 | > 100 | – | –
3 | NC1=NC2(CCCCC2)N(c2ccc(Cl)cc2)C(N)=N1 | > 100 | > 100 | 10 | > 100 | 36 | > 100 | > 100 | 49 | > 100 | > 100 | > 100 | > 100 | > 83 | > 100 | > 100 | > 100 | – | –
4 | CC1(C)N=C(N)N=C(N)N1c1cccc(C(F)(F)F)c1 | – | > 100 | – | – | – | > 100 | – | – | – | > 100 | > 100 | > 100 | – | 6.1 | > 100 | – | 0.03 | 20
5 | CCCC1N=C(N)N=C(N)N1c1ccc(Cl)cc1 (stereo not drawn) | > 100 | > 100 | > 83 | > 100 | > 100 | > 100 | > 100 | > 83 | > 100 | > 100 | > 100 | > 100 | 29 | > 100 | > 100 | > 100 | – | –
6 | CC1N=C(N)N=C(N)N1c1ccc(Cl)cc1 (stereo not drawn) | > 100 | > 100 | > 83 | > 100 | 4.9 | > 100 | > 100 | > 83 | 6.8 | > 100 | > 100 | > 100 | 17 | > 100 | > 100 | > 100 | – | –
7 | NC1=NC(c2ccccc2)N(c2ccc(Cl)cc2)C(N)=N1 (stereo not drawn) | > 100 | > 100 | > 83 | > 100 | > 100 | > 100 | > 100 | > 83 | > 100 | > 100 | > 100 | > 100 | > 100 | > 100 | > 100 | > 100 | – | –
8 | N=C(N)NC(=N)Nc1ccc(Cl)cc1 [4-CHLOROPHENYLBIGUANIDE] | > 100 | > 100 | > 83 | > 100 | > 100 | > 100 | > 100 | > 83 | > 100 | > 100 | > 100 | > 100 | > 100 | > 100 | > 100 | > 100 | – | –
9 | CC1(C)N=C(N)N=C(N)N1c1ccc(Cl)c(Cl)c1 [CHLORCYCLOGUANIL] | 0.35 | > 100 | 1.4 | > 100 | 0.03 | > 100 | 0.55 | 0.72 | 0.0075 | > 100 | > 100 | > 100 | 0.08 | 6.7 | > 100 | 3.8 | – | –
10 | [H]/N=C(\N/C(=N/[H])Nc1ccc(Cl)cc1)NC(C)C [PROGUANIL] | > 100 | > 100 | > 83 | > 100 | > 100 | > 100 | > 100 | > 83 | > 100 | > 100 | > 100 | > 100 | > 100 | > 100 | > 100 | > 100 | – | –
